Experiments:
[1] = tested on: human blood; assay: Labeling of blood cells: yield of cell labeling in whole blood; type: cell-based; conditions: 2 mCi (74 MBq) in 3 mL fresh human blood, 10 minutes, after washings
Description: (§1) The radiopharmaceuticals of table I (2 mCi; 74 MBq) are incubated in 3 mL of a fresh sample of human blood for 10 minutes under slow shaking. The blood composition depends upon each sample taken from healthy volunteers (average composition: 1.6±0.3.10^10 Red Globules (RG) and 2.2±0.3.10^7 White Globules (WG) with 1.2±0.3.10^7 Polymorphs (57±9%) and 0.7±0.3.10^7 Lymphocytes (35±4%)]. Non-bound radioactivity is removed by successive washings (2×10 mL of RPMI culture medium 1640) of 10 minutes at 600 g. The yield of cell labeling is determined in a CAPINTEC CRC 120 activimeter. Cell viability is controlled by the Trypan blue exclusion test.
(§2) The results obtained, namely the labeling yield (Yield) and the percentages of activity in the separated fractions are given in tables 3 to 5.

[2] = tested on: whole blood; assay: Cell separation on whole blood (Polymorphprep gradient), activity in separated fractions; type: cell-based, human; parameters: tested at 2 mCi (74 MBq) in 3 mL blood; conditions: for Cell separation on whole blood (activity %): Polymorphprep: fraction: Polymorphprep gradient; for Cell separation on whole blood (activity %): Erythrocytes: fraction: erythrocytes; for Cell separation on whole blood (activity %): Leukocytes: fraction: leukocytes; for Cell separation on whole blood (activity %): Medium: fraction: medium
Description: as §1, §2
In a first experiment, a separation of the blood constituents is made on a double density Polymorphprep® gradient.
Whole blood from healthy volunteers is labeled with 2 mCi of [^99mTc(ArCS3)2(ArCS2)] following the method described above. The blood constituents are then separated by the Polymorphprep® double density gradient into two separate fractions: lymphocytes and polymorphs/erythrocytes. The whole blood, diluted in 2-3 mL RPMI, is initially delicately placed on the Polymorphprep® gradient and then centrifuged (300 g, 20 min, 37° C.). […] Counting is made on each fraction using a MAXM Y07 00 367 counter in order to confirm cell constitution.

Structure (SMILES) | Yield (±3%) of cell labeling [1] [%] | Cell separation on whole blood (activity %): Polymorphprep [2] [%] | Cell separation on whole blood (activity %): Erythrocytes [2] [%] | Cell separation on whole blood (activity %): Leukocytes [2] [%] | Cell separation on whole blood (activity %): Medium [2] [%]
Cc1ccc(C(=S)S[S][99Tc]([S]SC(=S)c2ccc(C)cc2)[S]C(=S)c2ccc(C)cc2)cc1 [Example 5, [^99mTc(4-MePhCS3)2(4-MePhCS2)]] | 98 | 3 | 17 | 80 | 0
Cc1ccc(C(=S)S[S][99Tc]([S]SC(=S)c2ccc(C)cc2)[S]C(=S)c2ccc(C)cc2)cc1 [Example 6, [^99mTc(4-MePhCS3)2(4-MePhCS2)]] | 95 | 2 | 20 | 78 | 
CCc1ccc(C(=S)S[S][99Tc]([S]SC(=S)c2ccc(CC)cc2)[S]C(=S)c2ccc(CC)cc2)cc1 [Example 7, [^99mTc(4-EtPhCS3)2(4-EtPhCS2)]] | 93 | 3 | 12 | 83 | 2
CCc1ccc(C(=S)S[S][99Tc]([S]SC(=S)c2ccc(CC)cc2)[S]C(=S)c2ccc(CC)cc2)cc1 [Example 8, [^99mTc(4-EtPhCS3)2(4-EtPhCS2)]] | 99 |  | 14 | 85 | 1
CCc1ccccc1C(=S)S[S][99Tc]([S]SC(=S)c1ccccc1CC)[S]C(=S)c1ccccc1CC [Example 9, [^99mTc(2-EtPhCS3)2(2-EtPhCS2)]] | 72 | 2 | 24 | 72 | 2
CCc1ccccc1C(=S)S[S][99Tc]([S]SC(=S)c1ccccc1CC)[S]C(=S)c1ccccc1CC [Example 10, [^99mTc(2-EtPhCS3)2(2-EtPhCS2)]] | 92 | 2 | 22 | 76 | 2
CCCCc1ccc(C(=S)S[S][99Tc]([S]SC(=S)c2ccc(CCCC)cc2)[S]C(=S)c2ccc(CCCC)cc2)cc1 [Example 11, [^99mTc(4-nBuPhCS3)2(4-nBuPhCS2)]] | 97 | 1 | 53 | 46 | 
CCCCc1ccc(C(=S)S[S][99Tc]([S]SC(=S)c2ccc(CCCC)cc2)[S]C(=S)c2ccc(CCCC)cc2)cc1 [Example 12, [^99mTc(4-nBuPhCS3)2(4-nBuPhCS2)]] | 100 | 4 | 29 | 66 | 1
CCOc1ccc(C(=S)S[S][99Tc]([S]SC(=S)c2ccc(OCC)cc2)[S]C(=S)c2ccc(OCC)cc2)cc1 [Example 13, [^99mTc(4-EtOPhCS3)2(4-EtOPhCS2)]] | 99 | 1 | 29 | 70 | 

Source: patent publication US6469146B1, “Radiopharmaceutical products suitable for the selective labeling of lymphocytes, and their preparation” (Cis Bio International, priority 2000, dated 2002)
